Data: ChEMBL document CHEMBL3425434 (J Med Chem, 2015)
pEC50, pIC50: −log10 of the molar value. Active and inactive are the calls of the source. The rule behind the calls is not given here.

How the values were obtained:
[1] = target: T1, Rho-associated protein kinase 2 (Homo sapiens, UniProt O75116); assay: Inhibition of human N-terminal GST-tagged ROCK2 expressed in baculovirus-infected insect cells using long S6 kinase peptide as substrate by radiometric assay in presence of [32P]ATP
[2] = Inhibition of ROCK-catalysed MLC Thr18/Ser19 phosphorylation in rat A7r5 cells after 90 mins by ELISA; type: cell-based; conditions: A7R5, 1.5 h
[3] = Half life in human plasma by LC-MS/MS analysis; type: ADME, cell-free
[4] = target: T1, Rho-associated protein kinase 2; assay: Inhibition of human N-terminal GST-tagged ROCK2 expressed in baculovirus-infected insect cells using long S6 kinase peptide as substrate by radiometric assay in presence of [32P]ATP and 200 uM ATP
[5] = Lipophilicity, log D of the compound at pH 7.4; type: physicochemical; conditions: buffer
HDF-1 [6] = assay: Induction of cell migration in human HDF-1 cells at 1 uM after 8 hrs by wound healing assay; type: functional, cell-based
[7] = Apparent permeability across human Caco2 cells; type: ADME, cell-based; conditions: Caco-2
[8] = Stability in human plasma assessed as compound remaining after 60 mins by LC-MS/MS analysis; type: ADME, cell-free; conditions: read-out: Stability
[9] = Cytotoxicity against human HDF-1 cells assessed as decrease in cell viability after 2 hrs by WST-1 assay; type: cell-based
[10] = Induction of apoptosis in human HDF-1 cells assessed as increase in caspase3/7 activity at 40-100 uM after 24 hrs by caspase Glo-3/7 assay; type: cell-based; conditions: hdf-1, 24 h
[11] = Stability in human plasma assessed as compound remaining after 60 mins by LC-MS/MS analysis in presence of 5 uM cholinesterase inhibitor tacrine; type: ADME, cell-free; conditions: with tacrine (cholinesterase inhibitor), read-out: Stability
HDF-1 [12] = assay: Induction of cell migration in human HDF-1 cells after 8 hrs by wound healing assay; type: functional, cell-based
[13] = target: Rho-associated protein kinase 1 (Homo sapiens, UniProt Q13464); assay: Inhibition of human N-terminal GST-tagged ROCK1 expressed in insect cells using long S6 kinase peptide as substrate by radiometric assay in presence of [32P]ATP
Sequence of Rho-associated protein kinase 1 (Q13464 whole entry): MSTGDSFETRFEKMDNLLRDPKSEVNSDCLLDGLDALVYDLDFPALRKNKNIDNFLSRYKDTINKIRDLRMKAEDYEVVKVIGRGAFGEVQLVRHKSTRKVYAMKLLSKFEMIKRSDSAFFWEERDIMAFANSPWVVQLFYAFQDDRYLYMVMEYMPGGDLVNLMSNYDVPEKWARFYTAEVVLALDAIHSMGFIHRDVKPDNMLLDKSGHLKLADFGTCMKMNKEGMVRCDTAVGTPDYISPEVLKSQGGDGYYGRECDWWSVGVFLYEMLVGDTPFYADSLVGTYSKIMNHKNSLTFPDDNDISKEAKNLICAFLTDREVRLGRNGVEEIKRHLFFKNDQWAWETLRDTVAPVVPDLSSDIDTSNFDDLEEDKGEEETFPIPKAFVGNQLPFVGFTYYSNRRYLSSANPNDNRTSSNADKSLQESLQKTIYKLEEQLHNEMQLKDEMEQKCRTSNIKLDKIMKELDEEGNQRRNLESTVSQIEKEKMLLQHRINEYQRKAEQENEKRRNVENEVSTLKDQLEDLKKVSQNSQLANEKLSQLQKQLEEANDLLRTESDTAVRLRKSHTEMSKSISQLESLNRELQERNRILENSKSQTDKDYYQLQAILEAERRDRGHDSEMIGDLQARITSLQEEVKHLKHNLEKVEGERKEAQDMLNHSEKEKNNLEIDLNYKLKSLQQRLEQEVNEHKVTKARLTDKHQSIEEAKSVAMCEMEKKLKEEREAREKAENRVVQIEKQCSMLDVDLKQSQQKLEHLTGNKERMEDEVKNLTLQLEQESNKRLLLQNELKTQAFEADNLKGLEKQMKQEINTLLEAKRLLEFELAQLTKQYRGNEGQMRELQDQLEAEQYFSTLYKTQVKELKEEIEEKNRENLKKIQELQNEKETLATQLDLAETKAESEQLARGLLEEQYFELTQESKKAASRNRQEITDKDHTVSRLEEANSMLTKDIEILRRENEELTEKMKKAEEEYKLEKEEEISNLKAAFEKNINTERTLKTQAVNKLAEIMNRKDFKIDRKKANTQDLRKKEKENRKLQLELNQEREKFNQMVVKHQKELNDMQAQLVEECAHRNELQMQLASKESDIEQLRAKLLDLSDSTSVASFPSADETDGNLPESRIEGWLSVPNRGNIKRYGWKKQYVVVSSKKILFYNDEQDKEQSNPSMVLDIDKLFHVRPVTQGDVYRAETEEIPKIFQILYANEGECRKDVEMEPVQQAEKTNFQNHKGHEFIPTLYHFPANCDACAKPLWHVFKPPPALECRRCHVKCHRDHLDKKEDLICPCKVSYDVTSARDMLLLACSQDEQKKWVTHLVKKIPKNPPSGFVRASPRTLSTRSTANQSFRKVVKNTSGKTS

[14] = Half life in human plasma by LC-MS/MS analysis in presence of 5 uM cholinesterase inhibitor tacrine; type: ADME, cell-free; conditions: with tacrine (cholinesterase inhibitor)
Plasma [15] = assay: Stability in human plasma by LC-MS/MS analysis in presence of arylesterase inhibitor DTNB; type: ADME, cell-free
Plasma [16] = assay: Stability in human plasma by LC-MS/MS analysis in presence of 5 mM PON1 inhibitor, disodium EDTA; type: ADME, cell-free
Plasma [17] = assay: Stability in human plasma by LC-MS/MS analysis in presence of carboxylesterase inhibitor BNPP; type: ADME, cell-free
[18] = Induction of apoptosis in human HDF-1 cells assessed as increase in caspase3/7 activity at 60 uM after 24 hrs by caspase Glo-3/7 assay; type: cell-based; conditions: hdf-1, 24 h
Plasma [19] = assay: Stability in human plasma after 120 mins by LC-MS/MS analysis in presence of generic serine protease/serine esterase inhibitor, PMSF; type: ADME, cell-free; conditions: 2 h
[20] = Stability in human plasma assessed as compound remaining after 2 hrs by LC-MS/MS analysis; type: ADME, cell-free; conditions: read-out: Stability

T1 sequence (O75116 whole entry): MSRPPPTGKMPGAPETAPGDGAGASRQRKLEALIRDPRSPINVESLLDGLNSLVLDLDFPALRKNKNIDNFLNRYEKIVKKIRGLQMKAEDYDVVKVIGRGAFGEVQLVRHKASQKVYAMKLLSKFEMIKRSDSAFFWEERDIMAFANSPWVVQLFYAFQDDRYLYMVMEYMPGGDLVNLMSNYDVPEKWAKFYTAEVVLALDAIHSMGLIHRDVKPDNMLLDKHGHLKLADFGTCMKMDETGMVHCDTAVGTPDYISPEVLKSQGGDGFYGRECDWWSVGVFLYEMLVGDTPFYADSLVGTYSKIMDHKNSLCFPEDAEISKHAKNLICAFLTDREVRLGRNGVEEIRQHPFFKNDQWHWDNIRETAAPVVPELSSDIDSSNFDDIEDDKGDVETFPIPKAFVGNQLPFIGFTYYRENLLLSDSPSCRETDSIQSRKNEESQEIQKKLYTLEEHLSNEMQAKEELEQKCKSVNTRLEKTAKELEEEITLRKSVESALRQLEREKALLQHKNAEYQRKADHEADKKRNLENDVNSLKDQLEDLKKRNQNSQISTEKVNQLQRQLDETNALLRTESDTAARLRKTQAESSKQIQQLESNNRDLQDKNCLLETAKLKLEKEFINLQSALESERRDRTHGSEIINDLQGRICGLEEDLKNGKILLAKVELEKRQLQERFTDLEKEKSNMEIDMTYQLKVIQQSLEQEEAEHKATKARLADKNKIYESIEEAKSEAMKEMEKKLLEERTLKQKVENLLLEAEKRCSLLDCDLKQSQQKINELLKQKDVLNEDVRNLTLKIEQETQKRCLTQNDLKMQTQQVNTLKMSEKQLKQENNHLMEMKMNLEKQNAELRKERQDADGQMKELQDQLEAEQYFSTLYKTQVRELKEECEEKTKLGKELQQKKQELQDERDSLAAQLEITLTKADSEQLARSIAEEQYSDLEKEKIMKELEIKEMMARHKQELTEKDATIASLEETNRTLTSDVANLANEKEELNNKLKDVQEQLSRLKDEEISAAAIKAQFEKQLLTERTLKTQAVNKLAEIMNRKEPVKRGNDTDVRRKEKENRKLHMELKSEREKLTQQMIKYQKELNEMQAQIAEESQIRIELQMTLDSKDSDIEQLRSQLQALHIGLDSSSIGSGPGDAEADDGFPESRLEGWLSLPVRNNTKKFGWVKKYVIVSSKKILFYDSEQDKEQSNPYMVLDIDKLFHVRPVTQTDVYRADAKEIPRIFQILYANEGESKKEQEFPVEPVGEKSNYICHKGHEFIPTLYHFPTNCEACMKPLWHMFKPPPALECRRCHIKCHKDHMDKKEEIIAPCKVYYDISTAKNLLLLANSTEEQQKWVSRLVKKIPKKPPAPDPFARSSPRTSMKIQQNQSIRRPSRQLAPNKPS

| Compound | pIC50 [1] | pEC50 [2] | half-life [3] [min] | pIC50 [4] | further results |
| --- | --- | --- | --- | --- | --- |
| NCc1ccc(C(=O)Nc2ccncc2F)cc1-c1cccc(C(=O)Nc2cccc(C(=O)O)c2F)c1 | 8.46 | < 5.00 | > 120 |  |  |
| NCc1ccc(C(=O)Nc2ccncc2F)cc1-c1cccc(C(=O)Nc2ccc(CC(=O)OC3CCCOC3)cc2)c1 (configuration not stated) | > 9.00 | 7.44 | 6 | > 9.00 |  |
| NCc1ccc(C(=O)Nc2ccncc2F)cc1-c1cccc(C(=O)Nc2ccc(CC(=O)OC3CCCC3)cc2)c1 | > 9.00 | 7.59 | 7 | 8.89 | remaining at 1 h [8]: 2%; CC50 at 2 h [9]: 29000 nM; Activity [10]: Toxic; remaining at 1 h [11]: 100%; Activity (HDF-1 [12]): Dose-dependent effect |
| NCc1ccc(C(=O)Nc2ccncc2F)cc1-c1cccc(C(=O)Nc2ccc(CC(=O)O)cc2)c1 | 8.74 | 5.44 | > 120 |  |  |
| NCc1ccc(C(=O)Nc2ccncc2F)cc1-c1cccc(C(=O)Nc2cccc(C(=O)O)c2)c1 | 8.18 | 5.23 | > 120 |  |  |
| COC(=O)c1ccc(C(=O)Nc2cccc(-c3cc(C(=O)Nc4ccncc4F)ccc3CN)c2)cc1 | > 9.00 | 8.28 | > 120 | 8.51 |  |
| COC(=O)c1ccc(F)c(C(=O)Nc2cccc(-c3cc(C(=O)Nc4ccncc4F)ccc3CN)c2)c1 | > 9.00 | 8.17 | 53 | 8.85 | remaining at 1 h [8]: 23%; remaining at 1 h [11]: 103% |
| COC(=O)c1cccc(NC(=O)c2cccc(-c3cc(C(=O)Nc4ccncc4F)ccc3CN)c2)c1F | 8.92 | 7.96 | < 5 | 8.06 |  |
| COC(=O)Cc1ccc(NC(=O)c2cccc(-c3cc(C(=O)Nc4ccncc4F)ccc3CN)c2)cc1 | > 9.00 | 7.51 | < 5 | 7.96 | pIC50 [13]: > 9.00; half-life [14]: 53 min |
| CCCOC(=O)c1ccc(F)c(NC(=O)c2cccc(-c3cc(C(=O)Nc4ccncc4F)ccc3CN)c2)c1 | 8.68 | 7.12 | < 5 |  |  |
| NCc1ccc(C(=O)Nc2ccncc2F)cc1-c1cccc(C(=O)Nc2ccc(CC(=O)OC3CCOCC3)cc2)c1 | > 9.00 | 7.10 | 7 | > 9.00 | remaining at 1 h [8]: 0%; remaining at 1 h [11]: 82% |
| COC(=O)c1ccc(F)c(NC(=O)c2cccc(-c3cc(C(=O)Nc4ccncc4F)ccc3CN)c2)c1 | 8.80 | 7.59 | 18 | 7.34 | remaining at 1 h [8]: 13%; Stability (Plasma [15]): Unstable; CC50 at 2 h [9]: 45000 nM; remaining at 1 h [11]: 98%; Stability (Plasma [16]): Unstable; Activity (HDF-1 [12]): Dose-dependent effect; Stability (Plasma [17]): Unstable; Activity [18]: Toxic; Stability (Plasma [19]): Stable |
| COC(=O)c1cccc(C(=O)Nc2cccc(-c3cc(C(=O)Nc4ccncc4F)ccc3CN)c2)c1 | > 9.00 | 7.77 | 64 | 8.68 |  |
| CCCCOC(=O)c1cccc(NC(=O)c2cccc(-c3cc(C(=O)Nc4ccncc4F)ccc3CN)c2)c1 | 7.57 | 6.74 | < 5 |  |  |
| NCc1ccc(C(=O)Nc2ccncc2F)cc1-c1cccc(NC(=O)c2cc(C(=O)O)ccc2F)c1 | > 9.00 | 5.05 | > 120 |  |  |
| C[C@@H](N)[C@H]1CC[C@H](C(=O)Nc2ccncc2)CC1 [Y-27632] |  | 6.20 | > 120 |  |  |
| CCC(C)OC(=O)c1cccc(NC(=O)c2cccc(-c3cc(C(=O)Nc4ccncc4F)ccc3CN)c2)c1 (configuration not stated) | 8.59 | 7.11 | 16 |  |  |
| NCc1ccc(C(=O)Nc2ccncc2F)cc1-c1cccc(NC(=O)c2cccc(C(=O)O)c2)c1 | > 9.00 | 5.70 | > 120 |  |  |
| COCCOC(=O)c1ccc(F)c(C(=O)Nc2cccc(-c3cc(C(=O)Nc4ccncc4F)ccc3CN)c2)c1 | > 9.00 | 7.59 | < 5 | 8.66 | remaining at 1 h [8]: 0%; remaining at 1 h [11]: 88% |
| COC(=O)c1cccc(NC(=O)c2cccc(-c3cc(C(=O)Nc4ccncc4F)ccc3CN)c2)c1 | 8.96 | 7.10 | < 5 | 6.90 | pIC50 [13]: > 9.00; half-life [14]: 53 min |
| CC[C@H](C)OC(=O)Cc1ccc(NC(=O)c2cccc(-c3cc(C(=O)Nc4ccncc4F)ccc3CN)c2)cc1 | > 9.00 | 7.64 | 17 | > 9.00 | remaining at 1 h [8]: 42%; remaining at 1 h [11]: 101% |
| COC(=O)Cc1cccc(NC(=O)c2cccc(-c3cc(C(=O)Nc4ccncc4F)ccc3CN)c2)c1 | 8.96 | 6.66 | < 5 | 6.84 | pIC50 [13]: > 9.00 |
| NCc1ccc(C(=O)Nc2ccncc2F)cc1-c1cccc(NC(=O)c2ccc(C(=O)O)cc2)c1 | 9.00 | 5.44 |  |  |  |
| NCc1ccc(C(=O)Nc2ccncc2F)cc1-c1cccc(C(=O)Nc2ccccc2)c1 | > 9.00 | 7.66 | > 120 | 7.51 | remaining at 2 h [20]: > 90%; Papp [7]: 2.3 ×10⁻⁶ cm/s |
| CCCOC(=O)c1ccc(NC(=O)c2cccc(-c3cc(C(=O)Nc4ccncc4F)ccc3CN)c2)cc1 | > 9.00 | 8.08 | > 120 |  |  |

More lines, in order of rising pEC50 [2], values ahead:

| pIC50 [1] | pEC50 [2] | half-life [3] [min] | pIC50 [4] | Compound | further results |
| --- | --- | --- | --- | --- | --- |
| 8.48 | 5.18 | > 120 |  | NCc1ccc(C(=O)Nc2ccncc2F)cc1-c1cccc(C(=O)Nc2ccc(C(=O)O)cc2)c1 | logD [5]: 0.56; Activity (HDF-1 [6]): inactive; Papp [7]: 0.08 ×10⁻⁶ cm/s |
| 8.70 | 5.41 | > 120 |  | NCc1ccc(C(=O)Nc2ccncc2F)cc1-c1cccc(C(=O)Nc2cc(C(=O)O)ccc2F)c1 |  |
| 8.82 | 5.89 | > 120 |  | NCc1ccc(C(=O)Nc2ccncc2F)cc1-c1cccc(C(=O)Nc2cccc(CC(=O)O)c2)c1 |  |
| > 9.00 | 6.48 | < 5 | 8.34 | CN1CCC(OC(=O)Cc2ccc(NC(=O)c3cccc(-c4cc(C(=O)Nc5ccncc5F)ccc4CN)c3)cc2)CC1 |  |
| 8.42 | 6.68 |  | 6.71 | C[C@H]1CNCCCN1S(=O)(=O)c1cccc2cncc(F)c12 |  |
| 8.15 | 6.82 | 34 |  | CC(C)OC(=O)c1cccc(NC(=O)c2cccc(-c3cc(C(=O)Nc4ccncc4F)ccc3CN)c2)c1 |  |
|  | 7.03 | < 5 | 7.31 | NCc1ccc(C(=O)Nc2ccncc2F)cc1-c1cccc(C(=O)OCC2CCCO2)c1 (configuration not stated) |  |
| 8.48 | 7.10 | 46 |  | CC[C@@H](C)OC(=O)c1ccc(F)c(NC(=O)c2cccc(-c3cc(C(=O)Nc4ccncc4F)ccc3CN)c2)c1 |  |
| 8.26 | 7.30 | 39 | 7.14 | CC[C@H](C)OC(=O)c1ccc(F)c(NC(=O)c2cccc(-c3cc(C(=O)Nc4ccncc4F)ccc3CN)c2)c1 |  |
| 8.85 | 7.37 | 9 | 7.39 | NCc1ccc(C(=O)Nc2ccncc2F)cc1-c1cccc(C(=O)Nc2cccc(C(=O)OC3CCCC3)c2F)c1 |  |
| > 9.00 | 7.43 | 94 | > 9.00 | CC(C)OC(=O)Cc1ccc(NC(=O)c2cccc(-c3cc(C(=O)Nc4ccncc4F)ccc3CN)c2)cc1 |  |
| > 9.00 | 7.51 | > 120 | > 9.00 | CC[C@@H](C)OC(=O)Cc1ccc(NC(=O)c2cccc(-c3cc(C(=O)Nc4ccncc4F)ccc3CN)c2)cc1 |  |
| 8.89 | 7.62 | 6 | 8.85 | NCc1ccc(C(=O)Nc2ccncc2F)cc1-c1cccc(C(=O)Nc2ccc(CC(=O)OC3CCC3)cc2)c1 |  |
| 8.74 | 7.82 | < 5 |  | CCCOC(=O)c1cccc(C(=O)Nc2cccc(-c3cc(C(=O)Nc4ccncc4F)ccc3CN)c2)c1 |  |
